# Measured values from patent publication US10239844B2, “Disubstituted triazole analogs” (BioVentures, LLC, priority 2014, dated 2019).
# Assays:
# [1] = test system: GFP expressing leukemia cells; assay: In vivo anti-leukemic activity, GFP expressing leukemia cells injected into mice; conditions: 3.5 mg/kg
# Description: The anti-leukemic activity of Compound 8 (FIG. 1) was evaluated in vivo. GFP expressing leukemia cells were injected into mice. One week post injection, mice were treated with Compound 8 at 3.5 mg/kg or DMSO (control) (FIG. 11A). Mice were imaged one week later. […] Further, bone marrow was isolated and the percent of GFP expressing AML stem cells was quantitated.
# Hs578T cells = assay: Hs578T cell viability, Calcein-AM fluorescence, 48 hours; assay type: cell-based; conditions: Homo sapiens, Hs-578T
# Description: Some of these compounds were also screened against breast cancer cell line Hs578T. Briefly, Hs578T cells were seeded at 3,000 cells per well into 96-well plates and incubated overnight at 37° C. in DMEM (Dulbecco's Modified Eagle's Medium) containing 10% FBS (Fetal Bovine Serum) medium. The following day, various concentrations of combretastin analogs, or vehicle, were added to each plate and the plates were then incubated for 48 hours. Then, cells were washed twice with Dulbecco's Phosphate-Buffered Saline (DPBS) pH 7.4 and incubated with 2 μM Calcein-AM for 30 minutes at 25° C. Fluorescence was measured using a 490 nm excitation filter and a 520 nm emission filter. The fluorescence intensity is proportional to the number of viable cells. The fluorescence intensity of control (untreated) cells was taken as 100% viability. The relative cell viability compared to control was calculated by using the following formula: Cell viability (%)=Fluorescence intensity of treated cells/Fluorescence intensity of untreated cells×100.
# The GI50 values (growth inhibition; anti-proliferation) were calculated using GraphPad prism (San Diego, Calif.) by plotting the percent cell viability as a function of the compound concentration and fit to a four-parameter logistic model. The data represents mean±standard deviation of three independent experiments.
melting point [°C],Compound,"tumor shrinkage, imaging of GFP expressing cells (FIG. 11C) ([1]; imaged one week after treatment, relative to DMSO and untreated mice)",percent of GFP expressing AML stem cells in bone marrow (FIG. 10) ([1]; isolated bone marrow),average radiance (FIG. 11B) ([1]; versus DMSO control),GI50 (Hs578T cells) [nM]
–,"COc1cc(-c2n[nH]nc2-c2ccc3c(c2)OCO3)cc(OC)c1OC [Compound 8, 4-(benzo[d][1,3]dioxol-5-yl)-5-(3,4,5-trimethoxyphenyl)-2H-1,2,3-triazole]",significant tumor shrinkage,significant reduction in AML stem cells,significant reduction in leukemia cells,–
189 to 191,"COc1cc(-c2n[nH]nc2-c2cc3ccccc3s2)cc(OC)c1OC [PNR-7-74, 4-(benzo[b]thiophen-2-yl)-5-(3,4,5-trimethoxyphenyl)-2H-1,2,3-triazole]",–,–,–,10.3
158 to 160,"COc1cc(-c2n[nH]nc2-c2cc3ccccc3o2)cc(OC)c1OC [PNR-7-81, 4-(benzofuran-2-yl)-5-(3,4,5-trimethoxyphenyl)-2H-1,2,3-triazole]",–,–,–,20.3
–,"COc1cc(OC)cc(-c2n[nH]nc2-c2cc3ccccc3s2)c1 [PNR-7-83, 4-(benzo[b]thiophen-2-yl)-5-(3,5-dimethoxyphenyl)-2H-1,2,3-triazole]",–,–,–,66.5
